The values below come from US8846909B2, “Bicyclic heteroaryl kinase inhibitors and methods of use” (University of Rochester, priority 2010, dated 2014).

pIC50: −log10 of the molar value.

Broadly, the pIC50 is the IC50 on a negative log10 scale, so that one unit is a factor of ten.

The target in the experiment is T1, MLK3 (Homo sapiens, UniProt Q16584).
T1 construct: purchased Dundee DU8313
T1 sequence (Q16584 whole entry): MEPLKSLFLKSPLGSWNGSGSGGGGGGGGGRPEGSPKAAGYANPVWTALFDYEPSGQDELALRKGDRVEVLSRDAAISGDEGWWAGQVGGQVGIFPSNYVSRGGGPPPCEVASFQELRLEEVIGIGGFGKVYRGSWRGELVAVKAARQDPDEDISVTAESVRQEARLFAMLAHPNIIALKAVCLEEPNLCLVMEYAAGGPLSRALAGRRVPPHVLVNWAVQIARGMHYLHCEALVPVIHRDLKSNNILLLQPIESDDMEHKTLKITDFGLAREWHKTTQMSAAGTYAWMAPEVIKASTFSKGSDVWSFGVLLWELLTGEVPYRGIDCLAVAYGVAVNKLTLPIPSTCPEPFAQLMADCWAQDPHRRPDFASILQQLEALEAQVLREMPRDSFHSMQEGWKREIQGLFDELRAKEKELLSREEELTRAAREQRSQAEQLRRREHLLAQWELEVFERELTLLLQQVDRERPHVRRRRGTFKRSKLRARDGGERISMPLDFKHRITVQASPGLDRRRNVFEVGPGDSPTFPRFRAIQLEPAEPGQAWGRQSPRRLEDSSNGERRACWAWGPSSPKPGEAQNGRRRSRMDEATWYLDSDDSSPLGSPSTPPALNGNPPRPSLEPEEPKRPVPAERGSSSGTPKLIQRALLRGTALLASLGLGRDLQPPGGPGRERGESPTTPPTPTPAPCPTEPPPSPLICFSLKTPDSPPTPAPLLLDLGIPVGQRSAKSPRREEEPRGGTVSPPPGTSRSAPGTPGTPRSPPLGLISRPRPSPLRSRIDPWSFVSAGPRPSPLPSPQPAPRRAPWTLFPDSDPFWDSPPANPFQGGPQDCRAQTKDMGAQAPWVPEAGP
Nature of the experiment: Radiometric filter plate MLK3 assay. Note: 2 µM cold ATP (Km). The experiment is classed as biochemical. To be noted: read-out: MK3 IC50. How it is done:
After a twenty minute incubation, the reactions were washed through filter plates and read on a scintillation counter. Results are shown in Table 10 below, in which +++ indicates ≦0.1 μM, ++ indicates >0.1 μM and ≦1 μM, and + indicates >1 μM.
On to `COc1ccc(-n2c(=O)[nH]c3ncc(-c4ccc(OC)c(OC)c4)nc32)cc1` [Example 69, 6-(3,4-dimethoxyphenyl)-1-(4-methoxyphenyl)-1H-imidazo[4,5-b]pyrazin-2(3H)-one], for which the pIC50 was less than 6.00.
In the case of `COc1ccc(-n2c(=O)[nH]c3ncc(-c4ccc(O)cc4)nc32)cc1` [Example 70, 6-(4-hydroxyphenyl)-1-(4-methoxyphenyl)-1H-imidazo[4,5-b]pyrazin-2(3H)-one] it was less than 6.00.
In the case of `COc1ccc(-n2c(=O)[nH]c3ncc(-c4ccncc4)nc32)cc1` [Example 71, 1-(4-methoxyphenyl)-6-(pyridin-4-yl)-1H-imidazo[4,5-b]pyrazin-2(3H)-one] it was less than 6.00.
In the case of `COc1cc(-c2cnc3[nH]c(=O)n(-c4ccc5[nH]c(C)cc5c4)c3n2)cc(OC)c1OC` [Example 72, 1-(2-methyl-1H-indol-5-yl)-6-(3,4,5-trimethoxyphenyl)-1H-imidazo[4,5-b]pyrazin-2(3H)-one] it was more than 7.00; in that of `Cc1cc2cc(-n3c(=O)[nH]c4ncc(-c5cc(Cl)cc(Cl)c5)nc43)ccc2[nH]1` [Example 73, 6-(3,5-dichlorophenyl)-1-(2-methyl-1H-indol-5-yl)-1H-imidazo[4,5-b]pyrazin-2(3H)-one], less than 6.00; in that of `COc1cc(-c2cnc3[nH]c(=O)n(C4CCCC4)c3n2)cc(OC)c1OC` [Example 74, 1-cyclopentyl-6-(3,4,5-trimethoxyphenyl)-1H-imidazo[4,5-b]pyrazin-2(3H)-one], more than 7.00.
Consider `COc1ccc(-c2cnc3[nH]c(=O)n(C4CCCC4)c3n2)cc1OC` [Example 75, 1-cyclopentyl-6-(3,4-dimethoxyphenyl)-1H-imidazo[4,5-b]pyrazin-2(3H)-one], for which the pIC50 is less than 6.00.
In the case of `O=c1[nH]c2ncc(-c3ccncc3)nc2n1C1CCCC1` [Example 77, 1-cyclopentyl-6-(pyridin-4-yl)-1H-imidazo[4,5-b]pyrazin-2(3H)-one] it was less than 6.00.
In the case of `O=c1[nH]c2ncc(-c3cc(Cl)cc(Cl)c3)nc2n1CC1CC1` [Example 80, 1-(cyclopropylmethyl)-6-(3,5-dichlorophenyl)-1H-imidazo[4,5-b]pyrazin-2(3H)-one] it was less than 6.00.
In the case of `O=c1[nH]c2ncc(-c3ccc(O)cc3)nc2n1CC1CC1` [Example 81, 1-(cyclopropylmethyl)-6-(4-hydroxyphenyl)-1H-imidazo[4,5-b]pyrazin-2(3H)-one] it was less than 6.00.
For the compound `O=c1[nH]c2ncc(-c3ccncc3)nc2n1CC1CC1` [Example 82, 1-(cyclopropylmethyl)-6-(pyridin-4-yl)-1H-imidazo[4,5-b]pyrazin-2(3H)-one], the pIC50 is less than 6.00.
In the case of `Cc1cc2cc(-n3c(=O)[nH]c4ncc(-c5ccncc5)nc43)ccc2[nH]1` [Example 85, 1-(2-methyl-1H-indol-5-yl)-6-(pyridin-4-yl)-1H-imidazo[4,5-b]pyrazin-2(3H)-one] it was less than 6.00; in that of `O=c1[nH]c2ncc(-c3ccc(N4CCOCC4)cc3)nc2n1CC1CC1` [Example 86, 1-(cyclopropylmethyl)-6-(4-morpholinophenyl)-1H-imidazo[4,5-b]pyrazin-2(3H)-one], less than 6.00.
On to `COc1ccc(-c2cnc3[nH]c(=O)n(-c4ccc5[nH]ncc5c4)c3n2)cc1OC` [Example 87, 6-(3,4-dimethoxyphenyl)-1-(1H-indazol-5-yl)-1H-imidazo[4,5-b]pyrazin-2(3H)-one], for which the pIC50 is less than 6.00.
In the case of `O=c1[nH]c2ncc(-c3ccncc3)nc2n1-c1ccc2[nH]ncc2c1` [Example 88, 1-(1H-indazol-5-yl)-6-(pyridin-4-yl)-1H-imidazo[4,5-b]pyrazin-2(3H)-one] it was less than 6.00; in that of `O=c1[nH]c2ncc(-c3ccc(N4CCOCC4)cc3)nc2n1-c1ccc2[nH]ncc2c1` [Example 89, 1-(1H-indazol-5-yl)-6-(4-morpholinophenyl)-1H-imidazo[4,5-b]pyrazin-2(3H)-one], less than 6.00.
